Drawing on PubChem BioAssay (NCI), this text covers TGI for 13 compounds.

Experiment in all cases: NCI anticancer screen, dose series, 48 h
The test system of assay [1] is A549 NSCLC.
Assay [2] has as its system MDA-MB-231 breast.
Assay [3] relates to HOP-62 NSCLC.
Assay [4] has as its system U251 CNS.
For assay [5], the system named is HCT-116 colon.
The subject of assay [6] is MDA-MB-435.
Assay [7] relates to SK-OV-3 ovarian.
Assay [8] relates to HS 578T breast.
Assay [9] deals with SF-539 CNS.
The subject of assay [10] is PC-3 prostate.
Assay [11] concerns HT29 colon.
In assay [12] the test system is A498 renal.
In assay [13] the test system is K-562 leukemia.

Structures are written as SMILES.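 48-hour exposure; five concentrations; linearly interpolated endpoints. The concentration for full growth arrest is given as TGI.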

As for `COC(=O)CCCc1ccc2c(c1)CCC2`, the TGI in [1], in [2], in assay [3], in assay [4], in [5] and in assay [6] was greater than 100 µM in each case. Further, the TGI in [7], in assay [8], in assay [9] and in [10] was greater than 100 µM throughout.

Regarding `O=Cc1cc(O)c(O)c(O)c1-c1c(C=O)cc(O)c(O)c1O`, the TGI in assay [1], in assay [11], in assay [3], in [4], in assay [12] and in assay [13] was greater than 100 µM throughout. Moreover, the TGI in [5], in assay [7] and in [9] was greater than 100 µM in each case.

For `CC1OC(OP(=O)(OCc2ccccc2)OCc2ccccc2)C(OC(=O)c2ccccc2)C(OC(=O)c2ccccc2)C1I` (stereo not given), the TGI in assay [1], in [11], in assay [3], in assay [4], in [13] and in assay [5] was greater than 100 µM throughout. In assay [7], this compound gave a TGI greater than 100 µM.

For `CCC1OC2C(CC=C(C)C)=C3OC(C)(O)C(C)(CC)C(O)C3=C3OC(=O)C=C1C32` (stereo not given), the TGI was greater than 100 µM in [1]; 75.5 µM in assay [2]; greater than 100 µM in assay [4]; greater than 100 µM in assay [12]; greater than 100 µM in [13]; greater than 100 µM in assay [5]. Also, the TGI in assay [6] is greater than 100 µM; in [7] it was greater than 100 µM; in [9], 53.6 µM; in assay [10] it was greater than 100 µM.

As to `COc1cccc(-n2nnc3c(N)nc(N)nc32)c1`, the TGI in assay [1], in assay [2], in assay [11], in [3], in assay [4] and in [12] was greater than 100 µM throughout. Further, the TGI in assay [13], in assay [5], in [6], in assay [7], in assay [9] and in assay [10] was greater than 100 µM throughout.

For the compound `C=C1C(=O)O[C@H]2C1C[C@@H](O)[C@@]1(C)OC1CC[C@@]1(C)O[C@H]21` (stereo not given in full), the TGI in assay [1] is greater than 100 µM; in [2] it was 40.7 µM; in assay [11] it was 98.9 µM; in assay [4], greater than 100 µM; in assay [13], 32.5 µM; in [5], 34.3 µM. The TGI in assay [6] was 60 µM; in assay [7], greater than 100 µM; in [8] it was 98.8 µM; in assay [10], 83.9 µM.

Consider `COC(=O)CSc1[nH]c2nc(C)nc(Nc3ccccc3)c2c1C#N`, for which the TGI in assay [1], in [2], in [11], in [3], in [13] and in assay [6] was greater than 10 µM throughout. The TGI in [7] and in [10] was greater than 10 µM throughout.

Consider `COc1ccc(NS(=O)C2CCCCC2)cc1` (stereo not given), for which the TGI in assay [1], in assay [2], in assay [11], in [3], in assay [4] and in [13] was greater than 100 µM throughout. Further, the TGI in assay [5], in [6], in [8] and in assay [9] was greater than 100 µM in each case.

`C[Si](C)(C)C#C[I+]c1ccccc1`: the TGI in assay [1], in assay [11], in [3], in [4], in [12] and in [13] was greater than 100 µM in each case. The TGI in [5] is 56.6 µM; in [7], greater than 100 µM; in [9], 79.3 µM.

In the case of `CC1(C(O)c2ccccc2)CN(C(C)(C)C)C(=O)/C1=C\Sc1ccccc1` (stereo not given), the TGI is greater than 100 µM in assay [1]; greater than 100 µM in [2]; 79.8 µM in assay [11]; greater than 100 µM in assay [3]; greater than 100 µM in [4]; greater than 100 µM in assay [12]. For the same compound, the TGI in assay [13], in assay [5], in assay [6], in assay [7], in assay [9] and in [10] was greater than 100 µM throughout.

As to `Cc1ccc(S(=O)/C=C(\NC(=O)OCc2ccccc2)C(F)(F)F)cc1` (stereo not given), the TGI in [1] is greater than 100 µM; in assay [2] it was greater than 100 µM; in assay [11], greater than 100 µM; in assay [4] it was 55.2 µM; in assay [13] it was greater than 100 µM; in [5], greater than 100 µM. Also, the TGI in assay [6] is greater than 100 µM; in [7] it was greater than 100 µM; in [9] it was 92.9 µM; in [10] it was greater than 100 µM.

Regarding `Cc1cc2nc3c(C#N)c(-c4ccccc4)/c(=C\Nc4cccc(C(F)(F)F)c4)c(=O)n3c2cc1C`, the TGI is greater than 100 µM in [1]; greater than 100 µM in assay [2]; 66.9 µM in assay [3]; greater than 100 µM in assay [4]; greater than 100 µM in [12]; greater than 100 µM in assay [5]. The TGI in assay [6], in assay [7], in assay [9] and in [10] was greater than 100 µM each time.

Regarding `N#Cc1nn(-c2ccc(Cl)cc2)c(N)c2c(=N)n3nc(-c4ccccc4)cc3nc12`, the TGI in assay [1] was greater than 42.1 µM; in assay [11], greater than 32.8 µM; in assay [3], greater than 33.8 µM; in assay [4] it was greater than 55.8 µM; in [12], greater than 56.7 µM; in [13], greater than 100 µM. Also, the results for the TGI in assay [5] and in [7] were greater than 100 µM and 29.3 µM, respectively.
